This passage reports IC50 results from PubChem BioAssay AID652230 (The Scripps Research Institute Molecular Screening Center, 2013).

Active and inactive are the calls of the source.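 Rule for the calls: active = IC50 below 10 µM for blocking the phosphatase PP5; inactive = IC50 at or above 10 µM.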

The test concerns the target Serine/threonine-protein phosphatase 5 (Homo sapiens) (UniProt P53041). The test is described as follows: PP5 inhibitor potency, OMFP dephosphorylation, dose response, selectivity assay for PP1 inhibitor project, biochemical, fluorescence, OMFP substrate, powder samples, set 2 (AID 652230). The conditions noted are these: purified PP5c.

Serine/threonine-protein phosphatase 5 (Homo sapiens), sequence (P53041 whole entry, looked up): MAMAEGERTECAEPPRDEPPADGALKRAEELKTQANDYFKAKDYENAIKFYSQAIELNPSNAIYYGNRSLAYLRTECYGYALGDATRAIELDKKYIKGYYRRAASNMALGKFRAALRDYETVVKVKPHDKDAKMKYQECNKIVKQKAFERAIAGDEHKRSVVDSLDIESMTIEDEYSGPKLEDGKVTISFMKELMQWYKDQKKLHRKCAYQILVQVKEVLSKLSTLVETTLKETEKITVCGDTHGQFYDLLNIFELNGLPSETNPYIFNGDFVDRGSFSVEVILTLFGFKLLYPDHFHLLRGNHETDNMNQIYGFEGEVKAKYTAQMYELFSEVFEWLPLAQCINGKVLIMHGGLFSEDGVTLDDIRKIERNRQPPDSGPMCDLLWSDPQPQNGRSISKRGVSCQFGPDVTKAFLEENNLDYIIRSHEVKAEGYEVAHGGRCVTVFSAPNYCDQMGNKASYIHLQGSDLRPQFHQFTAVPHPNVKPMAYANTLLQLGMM

Take `CN1CCN([C@H](c2ncccn2)c2ccc3cccnc3c2O)CC1`: the IC50 entry was “inactive”.
Consider `CN1CCN([C@@H](c2ncccn2)c2ccc3cccnc3c2O)CC1`, for which the IC50 result is “inactive”.
